According to PMC10179080, “In Vivo and In Vitro Characterization of Close Analogs of Compound KA-11, a New Antiseizure Drug Candidate” (International Journal of Molecular Sciences, 2023):
Marks after values point to notes of the source that are not given here.

Key:
hERG potassium channel = biological target: T1, hERG potassium channel (Homo sapiens, UniProt Q12809); assay: Radioligand binding, potassium channel (hERG); conditions: human, human recombinant HEK-293 cells expressing hERG, KA-11 value not published before, read-out: % Inhibition of Control Specific Binding
T1 construct: host or cells: HEK-293 cells
T1 sequence (Q12809 whole entry): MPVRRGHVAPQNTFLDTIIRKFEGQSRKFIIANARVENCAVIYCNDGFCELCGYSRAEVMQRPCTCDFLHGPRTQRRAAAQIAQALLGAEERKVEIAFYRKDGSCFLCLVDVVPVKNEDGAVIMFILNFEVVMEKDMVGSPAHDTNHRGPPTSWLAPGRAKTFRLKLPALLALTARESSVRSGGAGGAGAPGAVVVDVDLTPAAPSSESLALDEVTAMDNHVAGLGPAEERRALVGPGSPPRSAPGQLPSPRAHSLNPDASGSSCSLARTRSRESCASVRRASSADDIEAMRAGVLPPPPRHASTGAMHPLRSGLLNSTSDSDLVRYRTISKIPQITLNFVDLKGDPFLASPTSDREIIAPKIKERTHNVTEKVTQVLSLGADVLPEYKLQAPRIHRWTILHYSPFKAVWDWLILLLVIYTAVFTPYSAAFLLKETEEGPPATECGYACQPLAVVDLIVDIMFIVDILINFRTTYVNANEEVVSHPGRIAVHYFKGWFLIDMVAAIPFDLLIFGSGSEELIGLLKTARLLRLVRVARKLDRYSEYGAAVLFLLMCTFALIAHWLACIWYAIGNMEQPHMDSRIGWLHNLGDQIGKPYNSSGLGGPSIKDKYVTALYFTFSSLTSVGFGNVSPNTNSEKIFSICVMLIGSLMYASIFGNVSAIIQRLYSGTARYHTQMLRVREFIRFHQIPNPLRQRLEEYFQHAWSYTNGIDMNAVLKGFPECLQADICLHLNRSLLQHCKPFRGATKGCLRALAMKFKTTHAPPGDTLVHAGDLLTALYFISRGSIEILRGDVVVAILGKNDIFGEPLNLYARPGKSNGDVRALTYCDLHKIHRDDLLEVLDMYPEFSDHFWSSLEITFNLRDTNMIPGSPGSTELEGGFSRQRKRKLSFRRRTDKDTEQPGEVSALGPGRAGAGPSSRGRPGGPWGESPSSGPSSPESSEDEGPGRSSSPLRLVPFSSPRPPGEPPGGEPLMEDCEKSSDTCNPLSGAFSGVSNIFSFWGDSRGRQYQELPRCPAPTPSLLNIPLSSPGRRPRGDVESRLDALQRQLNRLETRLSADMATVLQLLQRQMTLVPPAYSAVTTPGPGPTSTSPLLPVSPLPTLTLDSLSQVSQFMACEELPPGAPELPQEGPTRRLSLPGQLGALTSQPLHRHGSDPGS
Description: Dysfunction of both sodium and calcium ion channels is known to be one of the crucial reasons behind the pathogenesis of seizures. Consequently, these ion channels are molecular targets for several clinically important ASDs such as lacosamide, lamotrigine, carbamazepine, oxcarbazepine and compounds currently under preclinical and clinical studies. Thus, for KA-228 and KA-232, we tested herein their binding profile toward the aforementioned ion channels at concentrations of 10 and 100 µM (Table 3). […] Apart from in vitro studies focused on explaining the mechanism of action, KA-232 was additionally tested for its interaction with the potassium channel (hERG) which is recognized as one of the most important ‘off-targets’ responsible for harmful arrhythmogenic activity. Thus, the interaction of potential drug candidates with hERG must be excluded at an early stage of development.
(§1) Binding studies were carried out commercially in Eurofins Laboratories (Poitiers, France or New Taipei City, Taiwan).

[1] = biological target: T2, TRPV1 (VR1) (antagonist effect) (Homo sapiens, UniProt Q8NER1); assay: TRPV1 antagonist functional assay (intracellular Ca2+, CHO cells); format: cell-based; conditions: CHO; 100 µM; not published before; read-out: % Inhibition of control specific binding (functional, antagonist effect)
T2 construct: host or cells: CHO cells
T2 sequence (Q8NER1 whole entry): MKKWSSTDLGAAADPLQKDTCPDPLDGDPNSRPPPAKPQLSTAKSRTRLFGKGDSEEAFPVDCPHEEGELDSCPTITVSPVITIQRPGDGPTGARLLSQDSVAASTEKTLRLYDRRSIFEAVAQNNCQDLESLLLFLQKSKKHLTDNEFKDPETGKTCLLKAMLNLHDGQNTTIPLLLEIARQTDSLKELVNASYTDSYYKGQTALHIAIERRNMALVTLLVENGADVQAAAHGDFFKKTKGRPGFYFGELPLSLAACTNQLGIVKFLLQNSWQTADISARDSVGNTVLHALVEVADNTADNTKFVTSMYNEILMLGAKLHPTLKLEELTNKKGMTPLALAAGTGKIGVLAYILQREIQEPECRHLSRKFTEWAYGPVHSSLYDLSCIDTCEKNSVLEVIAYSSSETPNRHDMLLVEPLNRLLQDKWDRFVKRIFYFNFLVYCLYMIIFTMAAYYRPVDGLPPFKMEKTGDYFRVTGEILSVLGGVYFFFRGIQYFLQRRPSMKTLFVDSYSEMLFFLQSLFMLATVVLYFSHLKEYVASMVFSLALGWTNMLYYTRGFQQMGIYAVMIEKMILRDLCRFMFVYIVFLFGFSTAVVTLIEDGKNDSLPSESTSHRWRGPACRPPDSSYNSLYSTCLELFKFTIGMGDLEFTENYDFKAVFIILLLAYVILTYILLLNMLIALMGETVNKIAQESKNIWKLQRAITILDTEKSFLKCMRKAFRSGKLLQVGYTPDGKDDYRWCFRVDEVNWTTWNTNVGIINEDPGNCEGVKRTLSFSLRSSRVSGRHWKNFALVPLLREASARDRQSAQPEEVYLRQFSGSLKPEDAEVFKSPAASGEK
Description: as §1

[2] = system: tonic–clonic seizures in mice; conditions: i.p.; cited from earlier work
[3] = system: 6-Hz-induced psychomotor seizures in mice; conditions: i.p., cited from earlier work
[4] = system: PTZ-induced clonic seizures in mice; conditions: i.p., cited from earlier work
[5] = system: seizure susceptibility in mice; parameters: method as in PMID 28412310; conditions: 100 mg/kg; cited from earlier work
[6] = system: neuromuscular strength in mice; parameters: method as in PMID 34074008; conditions: single administration 30 mg/kg; cited from earlier work
Na^+ channel (site 2) = system: Na^+ channel (site 2); parameters: method as in PMID 26052884; conditions: 100 µM; cited from earlier work
[7] = system: Calcium Cav1.2 channels (dihydropyridine site, antagonist radioligand); parameters: method as in PMID 26052884; conditions: 100 µM; cited from earlier work
[8] = system: Calcium Cav1.2 channels (diltiazem site, antagonist radioligand); parameters: method as in PMID 30247871; conditions: 100 µM; cited from earlier work
[9] = system: Calcium Cav1.2 channel (verapamil site, antagonist radioligand); parameters: method as in PMID 30247871; conditions: 100 µM; cited from earlier work
[10] = system: Glutamate (NMDA, nonselective, antagonist radioligand, [3H] Ifenprodil radioligand); parameters: method as in PMID 30247871; conditions: 100 µM; cited from earlier work
[11] = system: Glutamate (AMPA, nonselective, antagonist radioligand, [3H] AMPA radioligand); parameters: method as in PMID 30247871; conditions: 100 µM; cited from earlier work
[12] = biological target: T3, Calcium Cav2.2 channel (antagonist radioligand) (Rattus norvegicus, UniProt Q02294); parameters: method as in PMID 26052884; conditions: 100 µM; cited from earlier work
T3 construct: rat cerebral cortex; tissue Eurofins Laboratories; host or cells: rat cerebral cortex

[13] = biological target: GABAA (α1,β2,γ2) (agonist radioligand) (Homo sapiens, UniProt P14867+P47870); parameters: method as in PMID 30247871; conditions: 100 µM; cited from earlier work
Chain of GABAA (α1,β2,γ2) (agonist radioligand) (P14867 28-456): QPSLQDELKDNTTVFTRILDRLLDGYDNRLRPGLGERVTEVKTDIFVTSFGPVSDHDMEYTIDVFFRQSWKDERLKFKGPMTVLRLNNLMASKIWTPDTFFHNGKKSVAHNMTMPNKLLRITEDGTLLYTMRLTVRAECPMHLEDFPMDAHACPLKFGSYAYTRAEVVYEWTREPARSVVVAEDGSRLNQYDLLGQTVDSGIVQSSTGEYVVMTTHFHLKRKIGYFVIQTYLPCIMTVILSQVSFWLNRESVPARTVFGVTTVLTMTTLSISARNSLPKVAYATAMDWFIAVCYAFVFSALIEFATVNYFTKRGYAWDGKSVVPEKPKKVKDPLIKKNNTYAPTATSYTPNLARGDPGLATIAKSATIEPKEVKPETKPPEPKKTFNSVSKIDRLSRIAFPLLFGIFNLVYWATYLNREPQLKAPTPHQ
Chain of GABAA (α1,β2,γ2) (agonist radioligand) (P47870 25-512 limits assumed): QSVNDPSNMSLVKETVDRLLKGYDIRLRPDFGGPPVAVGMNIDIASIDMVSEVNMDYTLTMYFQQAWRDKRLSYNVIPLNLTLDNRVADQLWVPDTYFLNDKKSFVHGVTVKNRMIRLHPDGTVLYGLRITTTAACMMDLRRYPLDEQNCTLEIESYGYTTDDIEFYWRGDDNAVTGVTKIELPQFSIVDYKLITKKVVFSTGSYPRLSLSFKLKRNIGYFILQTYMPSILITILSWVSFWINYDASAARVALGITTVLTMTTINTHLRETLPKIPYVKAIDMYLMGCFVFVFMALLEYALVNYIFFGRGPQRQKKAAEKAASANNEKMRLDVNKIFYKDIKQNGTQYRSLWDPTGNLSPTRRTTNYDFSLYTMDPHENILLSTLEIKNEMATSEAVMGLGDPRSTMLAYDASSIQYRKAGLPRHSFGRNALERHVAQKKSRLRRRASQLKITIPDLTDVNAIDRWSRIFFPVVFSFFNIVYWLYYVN
Chain of GABAA (α1,β2,γ2) (agonist radioligand) (P18507 40-475 partner): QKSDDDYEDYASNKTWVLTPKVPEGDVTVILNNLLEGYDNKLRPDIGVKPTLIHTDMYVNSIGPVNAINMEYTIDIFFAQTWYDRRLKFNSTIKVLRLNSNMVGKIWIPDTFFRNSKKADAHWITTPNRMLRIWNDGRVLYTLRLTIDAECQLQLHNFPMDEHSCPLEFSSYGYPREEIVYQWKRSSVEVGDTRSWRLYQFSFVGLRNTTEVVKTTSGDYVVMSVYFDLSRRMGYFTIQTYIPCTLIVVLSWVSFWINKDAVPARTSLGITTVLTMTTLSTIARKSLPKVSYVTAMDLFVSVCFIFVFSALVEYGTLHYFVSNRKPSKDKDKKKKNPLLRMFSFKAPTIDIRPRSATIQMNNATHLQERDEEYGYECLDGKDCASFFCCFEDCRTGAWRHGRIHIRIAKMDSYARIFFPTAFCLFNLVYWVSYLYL

[14] = parameters: method as in PMID 30247871; conditions: cited from earlier work
[15] = parameters: method as in PMID 26052884; conditions: cited from earlier work
CYP3A4 = biological target: T4, CYP3A4 (Homo sapiens, UniProt P08684); parameters: method as in PMID 26052884; conditions: 10 µM; cited from earlier work
T4 construct: purchased Promega, Madison, WI, USA
T4 sequence (P08684 whole entry): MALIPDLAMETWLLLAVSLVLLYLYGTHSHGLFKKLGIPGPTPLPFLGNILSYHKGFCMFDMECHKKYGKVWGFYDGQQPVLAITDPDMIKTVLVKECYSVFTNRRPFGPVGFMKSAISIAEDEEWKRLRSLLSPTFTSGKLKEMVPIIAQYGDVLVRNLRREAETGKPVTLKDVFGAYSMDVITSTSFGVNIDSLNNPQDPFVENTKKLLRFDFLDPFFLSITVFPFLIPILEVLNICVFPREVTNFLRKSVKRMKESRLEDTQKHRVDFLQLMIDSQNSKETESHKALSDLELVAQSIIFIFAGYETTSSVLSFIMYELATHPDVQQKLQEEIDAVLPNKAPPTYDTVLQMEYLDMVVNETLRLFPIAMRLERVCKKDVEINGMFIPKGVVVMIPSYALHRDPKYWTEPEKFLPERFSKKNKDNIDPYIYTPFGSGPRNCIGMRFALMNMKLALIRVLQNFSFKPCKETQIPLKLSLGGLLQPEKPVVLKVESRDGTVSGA

CYP2D6 = biological target: T5, CYP2D6 (Homo sapiens, UniProt P10635); parameters: method as in PMID 30247871; conditions: cited from earlier work
T5 construct: purchased Promega, Madison, WI, USA
T5 sequence (P10635 whole entry): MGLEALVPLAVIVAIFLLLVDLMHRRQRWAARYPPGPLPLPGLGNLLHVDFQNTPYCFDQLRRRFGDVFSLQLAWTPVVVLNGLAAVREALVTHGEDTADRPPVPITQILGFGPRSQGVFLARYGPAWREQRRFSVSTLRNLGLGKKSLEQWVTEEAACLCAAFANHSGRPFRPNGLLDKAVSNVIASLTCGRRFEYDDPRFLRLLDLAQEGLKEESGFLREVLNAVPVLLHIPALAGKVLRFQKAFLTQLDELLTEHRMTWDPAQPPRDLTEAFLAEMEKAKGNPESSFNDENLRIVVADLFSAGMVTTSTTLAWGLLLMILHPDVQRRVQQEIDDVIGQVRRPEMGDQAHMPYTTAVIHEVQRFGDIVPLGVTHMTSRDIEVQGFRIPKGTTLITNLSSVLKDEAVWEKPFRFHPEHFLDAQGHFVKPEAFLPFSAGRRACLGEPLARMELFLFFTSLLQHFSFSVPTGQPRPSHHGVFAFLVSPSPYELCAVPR

hepatoma HepG2 = system: hepatoma HepG2; parameters: method as in PMID 30247871; conditions: 10 µM; cited from earlier work
[16] = system: motor performance in mice; conditions: i.p.; cited from earlier work

CC(C(=O)N1CCN(c2cccc(C(F)(F)F)c2)CC1)N1C(=O)CCC1=O (stereo not shown) [KA-11]
inhibition at 60 min, 100 µM (hERG potassium channel): 15%
inhibition at 100 µM [1]: 33%
ED50 MES ± SD [2]: 88.4 ± 34.16 mg/kg
TI (TD50/ED50), MES [2]: > 16.97
ED50 6 Hz ± SD ([3]; 32 mA): 21.0 ± 32.19 mg/kg
TI (TD50/ED50), 6 Hz [3]: > 71.43
ED50 PTZ ± SD ([4]; scPTZ): 59.9 ± 19.55 mg/kg
TI (TD50/ED50), PTZ [4]: > 25.04
effect on thresholds for all studied endpoints (myoclonic twitch, generalized clonus, forelimb tonus) [5]: significant increase
effect on muscle strength [6]: no statistically significant abnormalities
% Inhibition of Control Specific Binding (Na^+ channel (site 2)): 37.4 (100) * %
% Inhibition of Control Specific Binding [7]: 64.2 (100) * %
% Inhibition of Control Specific Binding [8]: 44.9 (100) ^# %
% Inhibition of Control Specific Binding [9]: 1.5 (100) ^# %
% Inhibition of Control Specific Binding [10]: 13.0 (100) ^# %
% Inhibition of Control Specific Binding [11]: −2.9 (100) ^# %
% Inhibition of Control Specific Binding [12]: 13.9 (100) * %
% Inhibition of Control Specific Binding [13]: −28.1 (100) ^# %
PAMPA Pe ± SD [14]: 27.1 ± 3.8 ^b [9] 10^−6 cm/s
Metabolic stability (% remaining after incubation with HLMs) [15]: 73.49 [6] %
CYP3A4 activity (% of control ± SD) (CYP3A4): 99.21 ± 4.9 [6] % of control
CYP2D6 activity (% of control ± SD) (CYP2D6; 10 µM): 122.30 ± 2.02 [9] % of control
effect on CYP2D6 activity (CYP2D6; at 1 and 10 µM): slight induction
HepG2 viability (% of control ± SD) (hepatoma HepG2): 99.78 ± 2.18 [9] % of control
TD50 [16]: >1500 mg/kg
